Test results taken from patent publication US20090099319A1, “METHOD FOR SOLUBILISING HYDROPHOBIC ACTIVE SUBSTANCES IN AN AQUEOUS MEDIUM” (BASF SE, priority 2006, published 2009).
≈ marks a conversion by molar mass, not a printed value.

Test: physchem
Conditions: water, thermodynamic from solid
Protocol: The excess solid was separated off by subsequently centrifuging the solutions twice at 15 000 rpm (20 minutes in each case), producing in all instances a clear, saturated solution of active substance. Subsequently the amount of the guest molecules complexed was determined by means of UV-VIS spectra, the reference sample used in each case being the respective aqueous polymer solution with the same concentration and the same preparation (likewise centrifuged). […] For all of the solubilization experiments evaluated in this way, the measurement error was ±5%.

solubility at 18 h: 1.1 µg/mL (≈ 2.63 µM)
SMILES: COCCOC(=O)C1=C(C)NC(C)=C(C(=O)OC(C)C)C1c1cccc([N+](=O)[O-])c1 (stereo not drawn) [nimodipine, 1,4-dihydro-2,6-dimethyl-4-(3′-nitrophenyl)pyridine 3-β-methoxyethyl ester 5-isopropyl ester]
